In general, IC50 refers to the midpoint of a concentration-inhibition curve.

The target of one test is KRas G12D (Homo sapiens, UniProt P01116, G12D). The test is described as follows: biochemical. Particulars: Binding to KRas (IC50 nM) G12D, TR-FRET displacement, KRas G12D.
The next test deals with KRas G12V (Homo sapiens, UniProt P01116, G12V). The test is described as follows: biochemical. Particulars: Binding to KRas (IC50 nM) G12V, TR-FRET displacement, KRas G12V. For orientation: In TR-FRET formats the signal depends on donor and acceptor labels being close together.
Sequence of KRas G12V (P01116 1-169 isoform P01116-2 G12V): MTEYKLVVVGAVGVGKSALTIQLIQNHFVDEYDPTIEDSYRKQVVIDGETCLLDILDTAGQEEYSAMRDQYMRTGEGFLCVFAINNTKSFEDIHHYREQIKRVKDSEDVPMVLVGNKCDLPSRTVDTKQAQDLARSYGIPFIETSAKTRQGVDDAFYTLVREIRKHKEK

Sequence of KRas G12D (P01116 1-169 isoform P01116-2 G12D): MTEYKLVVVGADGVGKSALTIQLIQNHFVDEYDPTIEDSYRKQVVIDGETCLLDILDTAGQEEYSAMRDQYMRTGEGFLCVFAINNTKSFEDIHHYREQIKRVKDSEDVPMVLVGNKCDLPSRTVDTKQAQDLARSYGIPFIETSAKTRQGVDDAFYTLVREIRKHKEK

`CCc1cccc2cccc(N3CCc4c(nc(OCC5(CN(C)C)CC5)nc4NCCc4nncn4C(C)C)C3)c12` [Example 571, 2-((1-((dimethylamino)methyl)cyclopropyl)methoxy)-7-(8-ethylnaphthalen-1-yl)-N-(2-(4-isopropyl-4H-1,2,4-triazol-3-yl)ethyl)-5,6,7,8-tetrahydropyrido[3,4-d]pyrimidin-4-amine]: the half-inhibitory concentration (IC50) on KRas G12D is 75700 nM; at KRas G12V, 6720 nM.

Regarding `CCc1cccc2cccc(N3CCc4c(nc(OCC5(CN(C)C)CC5)nc4NCCc4nnc5ccccn45)C3)c12` [Example 572, N-(2-([1,2,4]triazolo[4,3-a]pyridin-3-yl)ethyl)-2-((1-((dimethylamino)methyl)cyclopropyl)methoxy)-7-(8-ethylnaphthalen-1-yl)-5,6,7,8-tetrahydropyrido[3,4-d]pyrimidin-4-amine], the half-inhibitory concentration (IC50) at KRas G12D amounted to 89400 nM; on KRas G12V, 4560 nM.

For the compound `CCc1cccc2cccc(N3CCc4c(nc(OCC5(CN(C)C)CC5)nc4NCC4(NC(=O)OC(C)(C)C)CCOC4)C3)c12` (centres unmarked) [Example 573, tert-butyl (3-(((2-((1-((dimethylamino)methyl)cyclopropyl)methoxy)-7-(8-ethylnaphthalen-1-yl)-5,6,7,8-tetrahydropyrido[3,4-d]pyrimidin-4-yl)amino)methyl)tetrahydrofuran-3-yl)carbamate], the results for the 50% inhibitory concentration (IC50) on KRas G12D and at KRas G12V were 96000 nM and 7840 nM, respectively.

Consider `CCc1cccc2cccc(N3CCc4c(nc(OCC5(CN(C)C)CC5)nc4N4CCCOC(CC)C4)C3)c12` (centres unmarked) [Example 663, 1-(1-(((4-(2-ethyl-1,4-oxazepan-4-yl)-7-(8-ethylnaphthalen-1-yl)-5,6,7,8-tetrahydropyrido[3,4-d]pyrimidin-2-yl)oxy)methyl)cyclopropyl)-N,N-dimethylmethanamine], for which the half-maximal inhibitory concentration (IC50) on KRas G12D came out at 2310 nM; at KRas G12V, 1420 nM.

For the compound `CCc1cccc2cccc(N3CCc4c(nc(OCC5(CN(C)C)CC5)nc4N4CCOCC(C)C4)C3)c12` (centres unmarked) [Example 664, 1-(1-(((7-(8-ethylnaphthalen-1-yl)-4-(6-methyl-1,4-oxazepan-4-yl)-5,6,7,8-tetrahydropyrido[3,4-d]pyrimidin-2-yl)oxy)methyl)cyclopropyl)-N,N-dimethylmethanamine], the IC50 on KRas G12D amounted to 254 nM; at KRas G12V, 317 nM.

For the compound `CCc1cccc2cccc(N3CCc4c(nc(OCC5(CN(C)C)CC5)nc4N4CCOCC(O)C4)C3)c12` (centres unmarked) [Example 666, 4-(2-((1-((dimethylamino)methyl)cyclopropyl)methoxy)-7-(8-ethylnaphthalen-1-yl)-5,6,7,8-tetrahydropyrido[3,4-d]pyrimidin-4-yl)-1,4-oxazepan-6-ol], the IC50 on KRas G12D stood at 340 nM; on KRas G12V, 238 nM.

As for `CCc1cccc2cccc(N3CCc4c(nc(OCC5(CN(C)C)CC5)nc4N4CCCOC(C)C4)C3)c12` (centres unmarked) [Example 667, 1-(1-(((7-(8-ethylnaphthalen-1-yl)-4-(2-methyl-1,4-oxazepan-4-yl)-5,6,7,8-tetrahydropyrido[3,4-d]pyrimidin-2-yl)oxy)methyl)cyclopropyl)-N,N-dimethylmethanamine], the results for the IC50 on KRas G12D and on KRas G12V were 223 nM and 243 nM, respectively.

Regarding `CCc1cccc2cccc(N3CCc4c(nc(OCC5(CN(C)C)CC5)nc4N(C)Cc4nncn4C)C3)c12` [Example 668, 2-((1-((dimethylamino)methyl)cyclopropyl)methoxy)-7-(8-ethylnaphthalen-1-yl)-N-methyl-N-((4-methyl-4H-1,2,4-triazol-3-yl)methyl)-5,6,7,8-tetrahydropyrido[3,4-d]pyrimidin-4-amine], the half-maximal inhibitory concentration (IC50) worked out at 8990 nM at KRas G12D and 2050 nM at KRas G12V.

As to `CCc1cccc2cccc(N3CCc4c(nc(OCC5(CN(C)C)CC5)nc4N4CCCOCC4)C3)c12` [Example 669, 1-(1-(((7-(8-ethylnaphthalen-1-yl)-4-(1,4-oxazepan-4-yl)-5,6,7,8-tetrahydropyrido[3,4-d]pyrimidin-2-yl)oxy)methyl)cyclopropyl)-N,N-dimethylmethanamine], the IC50 at KRas G12D amounted to 190 nM; at KRas G12V it was 199 nM.

Consider `CCc1cccc2cccc(N3CCc4c(nc(OCC5(CN(C)C)CC5)nc4N4CCOCC(CC)C4)C3)c12` (centres unmarked) [Example 672, 1-(1-(((4-(6-ethyl-1,4-oxazepan-4-yl)-7-(8-ethylnaphthalen-1-yl)-5,6,7,8-tetrahydropyrido[3,4-d]pyrimidin-2-yl)oxy)methyl)cyclopropyl)-N,N-dimethylmethanamine], for which the half-inhibitory concentration (IC50) at KRas G12D turned out to be 1280 nM; on KRas G12V, 1440 nM.

For the compound `CCc1cccc2cccc(N3CCc4c(nc(OCC5(CN(C)C)CC5)nc4NCc4ncn(C(C)C)n4)C3)c12` [Example 673, 2-((1-((dimethylamino)methyl)cyclopropyl)methoxy)-7-(8-ethylnaphthalen-1-yl)-N-((1-isopropyl-1H-1,2,4-triazol-3-yl)methyl)-5,6,7,8-tetrahydropyrido[3,4-d]pyrimidin-4-amine], the IC50 at KRas G12D was found to be 8420 nM; on KRas G12V, 2440 nM.

Regarding `CCc1cccc2cccc(N3CCc4c(nc(OCC5(CN(C)C)CC5)nc4N4CCOCC(CO)C4)C3)c12` (centres unmarked) [Example 678, (4-(2-((1-((dimethylamino)methyl)cyclopropyl)methoxy)-7-(8-ethylnaphthalen-1-yl)-5,6,7,8-tetrahydropyrido[3,4-d]pyrimidin-4-yl)-1,4-oxazepan-6-yl)methanol], the IC50 on KRas G12D turned out to be 197 nM; at KRas G12V, 210 nM.

With `CCc1cccc2cccc(N3CCc4c(nc(OCC5(CN(C)C)CC5)nc4N4CCCC(c5c[nH]nn5)C4)C3)c12` (centres unmarked) [Example 679, 1-(1-(((4-(3-(1H-1,2,3-triazol-4-yl)piperidin-1-yl)-7-(8-ethylnaphthalen-1-yl)-5,6,7,8-tetrahydropyrido[3,4-d]pyrimidin-2-yl)oxy)methyl)cyclopropyl)-N,N-dimethylmethanamine], the IC50 came to 5890 nM on KRas G12D and 3190 nM at KRas G12V.

On to `CCc1cccc2cccc(N3CCc4c(nc(OCC5(CN(C)C)CC5)nc4N4CCCC(c5c[nH]cn5)C4)C3)c12` (centres unmarked) [Example 680, 1-(1-(((4-(3-(1H-imidazol-4-yl)piperidin-1-yl)-7-(8-ethylnaphthalen-1-yl)-5,6,7,8-tetrahydropyrido[3,4-d]pyrimidin-2-yl)oxy)methyl)cyclopropyl)-N,N-dimethylmethanamine], for which the figures for the IC50 on KRas G12D and at KRas G12V were 5490 nM and 3130 nM, respectively.

Take `CCc1cccc2cccc(N3CCc4c(nc(OCC5(CN(C)C)CC5)nc4N4CCCC(c5ccon5)C4)C3)c12` (centres unmarked) [Example 681, 1-(1-(((7-(8-ethylnaphthalen-1-yl)-4-(3-(isoxazol-3-yl)piperidin-1-yl)-5,6,7,8-tetrahydropyrido[3,4-d]pyrimidin-2-yl)oxy)methyl)cyclopropyl)-N,N-dimethylmethanamine]: the IC50 turned out to be 3830 nM at KRas G12D and 3220 nM at KRas G12V.

Turning to `CCc1cccc2cccc(N3CCc4c(nc(OCC5(CN(C)C)CC5)nc4N4CCCC(n5cccn5)C4)C3)c12` (centres unmarked) [Example 682, 1-(1-(((4-(3-(1H-pyrazol-1-yl)piperidin-1-yl)-7-(8-ethylnaphthalen-1-yl)-5,6,7,8-tetrahydropyrido[3,4-d]pyrimidin-2-yl)oxy)methyl)cyclopropyl)-N,N-dimethylmethanamine], the figures for the half-maximal inhibitory concentration (IC50) on KRas G12D and on KRas G12V were 1610 nM and 1760 nM, respectively.

`CCc1cccc2cccc(N3CCc4c(nc(OCC5(CN(C)C)CC5)nc4N4CCCC(c5ncc[nH]5)C4)C3)c12` (centres unmarked) [Example 685, 1-(1-(((4-(3-(1H-imidazol-2-yl)piperidin-1-yl)-7-(8-ethylnaphthalen-1-yl)-5,6,7,8-tetrahydropyrido[3,4-d]pyrimidin-2-yl)oxy)methyl)cyclopropyl)-N,N-dimethylmethanamine]: the IC50 turned out to be 1650 nM at KRas G12D and 1860 nM on KRas G12V.

As to `CCc1cccc2cccc(N3CCc4c(nc(OCC5(CN(C)C)CC5)nc4NCc4nnc5n4CCCCC5)C3)c12` [Example 686, 2-((1-((dimethylamino)methyl)cyclopropyl)methoxy)-7-(8-ethylnaphthalen-1-yl)-N-((6,7,8,9-tetrahydro-5H-[1,2,4]triazolo[4,3-a]azepin-3-yl)methyl)-5,6,7,8-tetrahydropyrido[3,4-d]pyrimidin-4-amine], the half-inhibitory concentration (IC50) was 5250 nM at KRas G12D and 4520 nM at KRas G12V.

With `CCc1cccc2cccc(N3CCc4c(nc(OCC5(CN(C)C)CC5)nc4N4CCCC(c5nc(C)c(C)[nH]5)C4)C3)c12` (centres unmarked) [Example 687, 1-(1-(((4-(3-(4,5-dimethyl-1H-imidazol-2-yl)piperidin-1-yl)-7-(8-ethylnaphthalen-1-yl)-5,6,7,8-tetrahydropyrido[3,4-d]pyrimidin-2-yl)oxy)methyl)cyclopropyl)-N,N-dimethylmethanamine], the half-maximal inhibitory concentration (IC50) at KRas G12D worked out at 10800 nM; on KRas G12V, 6230 nM.

In the case of `CCc1cccc2cccc(N3CCc4c(nc(OCC5(CN(C)C)CC5)nc4N4CCCC(c5ccn(C)n5)C4)C3)c12` (centres unmarked) [Example 689, 1-(1-(((7-(8-ethylnaphthalen-1-yl)-4-(3-(1-methyl-1H-pyrazol-3-yl)piperidin-1-yl)-5,6,7,8-tetrahydropyrido[3,4-d]pyrimidin-2-yl)oxy)methyl)cyclopropyl)-N,N-dimethylmethanamine], the IC50 on KRas G12D was found to be 7420 nM; on KRas G12V, 4310 nM.

With `CCc1cccc2cccc(N3CCc4c(nc(OCC5(CN(C)C)CC5)nc4N4CCCC(c5nc(=O)[nH][nH]5)C4)C3)c12` (centres unmarked) [Example 690, 5-(1-(2-((1-((dimethylamino)methyl)cyclopropyl)methoxy)-7-(8-ethylnaphthalen-1-yl)-5,6,7,8-tetrahydropyrido[3,4-d]pyrimidin-4-yl)piperidin-3-yl)-1,2-dihydro-3H-1,2,4-triazol-3-one], the IC50 was 5440 nM on KRas G12D and 1360 nM at KRas G12V.

On to `CCc1cccc2cccc(N3CCc4c(nc(OCC5(CN(C)C)CC5)nc4NCc4nnc(C5CCOC5)[nH]4)C3)c12` (centres unmarked) [Example 691, 2-((1-((dimethylamino)methyl)cyclopropyl)methoxy)-7-(8-ethylnaphthalen-1-yl)-N-((5-(tetrahydrofuran-3-yl)-4H-1,2,4-triazol-3-yl)methyl)-5,6,7,8-tetrahydropyrido[3,4-d]pyrimidin-4-amine], for which the concentration for half-maximal inhibition (IC50) on KRas G12D was 7300 nM; at KRas G12V, 5300 nM.

For the origin of these results see patent publication US20250368649A1, “TETRAHYDROPYRIDOPYRIMIDINE PAN-KRAS INHIBITORS” (Mirati Therapeutics, Inc., priority 2022, published 2025).
